Reference: US20050014766A1, “Use of n-(indolecarbonyl-)piperazine derivatives” (priority 2002, published 2005)

How the values were obtained:
[1] = tested on: recombinant in-bred mice (crossing of the strains C57ML/6J and DBA/2J); experiment: pre-pulse inhibition in recombinant in-bred mice with inherently poor pre-pulse inhibition; type: in vivo; details: recombinant mouse strain with poor pre-pulse inhibition
Description: A typical animal model of schizotypical personality disorders and the prevention of schizophrenia in first-degree relatives is restricted pre-pulse inhibition. Pre-pulse inhibition is a non-species-specific phenomenon in which the normal reflex reactions to discrete sensory events are reduced if slight prior stimulation has been carried out in advance; pre-pulse inhibition can be used to assess sensomotory gating processes. In patients with schizotypical personality disorders and their first-degree relatives (in whom there is a high risk of the development of schizotypical personality disorders), the normal function of pre-pulse inhibition is disturbed (Braff, D. et al., Psychophysiology, 1978; 15:339-343; Braff, D., Arch Gen Psychiatry, 1992; 49:206-215; Bolino, F. et al., Biol Psychiatry, 1994; 36:670-679). Recombinant in-bred mice having an inherently poor pre-pulse inhibition (crossing of the strains C57ML/6J and DBA/2J) represent a corresponding animal model (McCaughran, J. A. Jr. et al., Psychopharmacology 1997; 134:131-140; McCaughran, J. A. Jr. et al., Behav. Genetics, 1999; 29:21-30.).

mice [2] = experiment: hyperlocomotory activity induced by dizocilpine; type: in vivo, mouse
Description: Animal models of treatment-resistant schizophrenia and psychosis in tardive dyskinesia are so-called stimulant-induced psychoses (Ellison, G., Brain Res. Rev. 1994; 137:193-197). Chronic misuse of ‘dopamine agonists’, such as, for example, amphetamine or cocaine, or antagonists of N-methyl-D-aspartate (NMDA), such as, for example, ketamine, phencyclidine and dizocilpine, causes a syndrome of behavioural effects which has many features in common with the symptom complex of schizophrenia, i.e. these substances induce schizophrenia-like symptoms in healthy people and accelerate psychotic reactions in stabilised schizophrenic patients (Luby, E. D. et al., Am. Med. Assoc. Arch. Neurol. Psychiatry, 1959; 119:61-67; Lahti, A. C. et al., Neuropsychopharmacology, 1995; 13:9-19; Malhotra, A. K. et al., Neuropsychopharmacology, 1996; 14:301-307; Adler, C. M. et al., Biol. Psychiatry 1998; 43:811-816). In rodents, these stimulants cause extreme hyperlocomotory activity (Schaefer, G. J. et al., Neuropharmacology 1984; 23:909-914; Millan, M. J. et al., Eur. J. Neurosci. 1999; 11:419-432; O'Neill, M. F. et al., Psychopharmacology, 1999, 145:237-250).

rats = experiment: T-labyrinth learning and memory model in rats; type: in vivo, rat; details: after denial of food
Description: In a learning and memory model in rats, the T-labyrinth method is used, in which rats, after denial of food, have to learn to find a reward in the arm of the labyrinth which is opposite the arm in which the reward was offered in the previous experiment (Moran, P. et al., Brain Res. 1992; 569:156-158).

mice [3] = experiment: four plate test (model of acute stress anxiety); type: in vivo, mouse; details: 5 minute test period
Description: A typical model of acute stress anxiety is the “four plate test” as described by C. Aron et al., Neuropharmacology 1971, 10: 459-469.
The device consists of a small box whose base is composed of four metal plates. Each time the mouse moves from one plate to the next, it receives a short current pulse on the foot, thus reducing the investigative behaviour. The number of changes from one plate to the next which occur with punishment (i.e. the number of current pulses accepted by the animal) is recorded over a test period of 5 minutes.

monkeys = experiment: DMTS method (delayed matching to sample) in monkeys; type: in vivo, monkey
Description: Of the learning models, the DMTS method (DMTS=delayed matching to sample) in monkeys (Buccafusco, J. J. et al., Psychopharmacology, 1995; 120: 256-266; Buccafusco, J. J. et al., Drug Dev. Res., 1996; 38: 196-203; Prendergast, M. A. et al., Pharmacol. Biochem. Behav., 1997; 56: 81-87) is potentially of interest since the various aspects of learning and memory can be measured in this method. An experiment begins with the illumination of a sample key provided with one of three coloured discs. The monkeys are taught to press the illuminated sample key in order to initiate the experiment. After the delay interval, the two keys available for selection illuminate, but not the sample key. One of the two keys available for selection is offered with the colour that the sample key had before the delay interval, while the other (wrong) key available for selection has one of the two other colours. If the monkey makes the correct assignment (i.e. if it presses the key available for selection which has the same colour as the stimulus key), the response is rewarded. […] Finally, all stimulus equalisation measures were assigned to the delay duration. […]

mice [4] = experiment: light-dark choice test (model of generalised anxiety disorders); type: in vivo, mouse; details: period of 5 minutes
Method: A typical model of generalised anxiety disorders is the “light-dark choice test” as described by J. N. Crawly, Pharmacol. Biochem Behav. 1981, 15: 695-699.
The corresponding device for the selection of brightness or darkness consists of two boxes connected to one another, one box being darkened and the other being brightly illuminated. A mouse is placed in one of the boxes, and it is measured how much time the mouse spends in the illuminated box over a period of 5 minutes. Normal mice only go into the illuminated compartment rarely and spend almost all the time in the dark compartment.

mice [5] = experiment: isolation-induced fighting behaviour in mice (aggression model); type: in vivo, mouse
Description: A typical animal model of aggression is the isolation-induced fighting behaviour in mice (Paivarinta, P., Pharmacol. Biochem. Behav., 1992; 42: 35-39; Haller, J. et al., Psychopharmacology, 1996; 126: 345-350). […] The number of bites or bite attacks can be used as a measure of the aggression.

N#Cc1c[nH]c2c(C(=O)N3CCN(CCc4ccc(F)cc4)CC3)cccc12 [(3-cyano-1H-indol-7-yl)[4-(4-fluorophenethyl)piperazin-1-yl]methanone]
deficits in pre-pulse inhibition [1]: significantly reduces the deficits in pre-pulse inhibition
hyperlocomotory activity induced by dizocilpine (mice [2]): significantly reduces hyperlocomotory activity
learning and memory in the T-labyrinth (rats): has memory-promoting effects in the learning process and facilitates better and faster learning with a shorter performance time
number of changes with punishment (mice [3]): increases the number of changes with punishment
DMTS hit rate and general aspects of working memory (monkeys): clearly improves the DMTS hit rate
time spent by the mice in the illuminated compartment (mice [4]): increases the time spent by the mice in the illuminated compartment
isolation-induced fighting behaviour (mice [5]): reduces the isolation-induced fighting behaviour
